Experimental data from patent publication US5604233A, “Lactone stable formulation of 7-ethyl camptothecin and methods for uses thereof” (priority 1994, dated 1997).
Entries after “also recorded” stand apart in the source; their conditions may differ. Where two headings read alike, the source gives them in different places.

What was measured:
topoisomerase I [1] = conditions: cited from earlier work
[2] = cited from earlier work
L1210 leukemia = conditions: 10-100 mg/kg intraperitoneally; cited from earlier work
P388 tumor = conditions: intermittent bolus days 1, 5, 9, i.p.; cited from earlier work
[3] = tested on: Topoisomerase I purified from human colon carcinoma cells or calf thymus; conditions: cited from earlier work
[4] = Fractional amounts of lactone species of CPT-11 and HECPT (Rothenburg et al.); format: in vivo, human; conditions: Table 4
Description: Fractional Amounts of Lactone Species of CPT-11 and HECPT as
Function of Increasing Single Dose LV. From Rothenburg et al.

DNA single-strand breaks = conditions: cells exposed to HECPT; cited from earlier work
[5] = Pharmacokinetics of CPT-11 and HECPT, 5-day continuous infusion of CPT-11 (Ohe et al.); format: in vivo, human; conditions: e.g., above 30 mg/m^2/d
Description: Initially, patients may be treated in a dose escalation protocol to determine the maximal tolerated dose of the ECPT formulation. […] For the purpose of this invention, "AUC" is defined as "area under the curve" and "CpMax" is defined as "the maximum plasma concentrate at the end of I.V.

MOLT3 cells = conditions: cited from earlier work
topoisomerase I [6] = conditions: P388 cells; cited from earlier work
[7] = after CPT-11 versus HECPT administration; cited from earlier work
[8] = cited from earlier work; remark: listed apart in the source
preclinical tumor models = conditions: cited from earlier work
[9] = cited from earlier work; remark: listed apart in the source
[10] = mice; cited from earlier work
[11] = U.S. Pat. No. 4,713,246; cited from earlier work
[12] = Phase II; cited from earlier work
[13] = cited from earlier work; for sporadic toxicities: relative to parent compound
[14] = cited from earlier work; remark: listed apart in the source
Tumor = conditions: cited from earlier work; for Toxicity: * dose limiting toxicity
Cervical cancer = conditions: 100 mg/m^2 weekly, 150 mg/m^2 weeks; cited from earlier work
[15] = tested on: Refractory or Relapsed Small Cell Lung Ca; conditions: 100 mg/m^2 weekly; cited from earlier work
Colon cancer = conditions: 100 mg/m^2/week or 150 mg/m^2/Q 2 wks; cited from earlier work
Small Cell Lung Cancer = conditions: 100 mg/m^2/week; cited from earlier work
[16] = tested on: Untreated Non Small Cell Lung Cancer; conditions: 100 mg/m^2 weekday; cited from earlier work
Leukemia/Lymphoma = conditions: cited from earlier work
human tumors = conditions: nude mice xenografts; cited from earlier work
[17] = first Rothenberg line, no dose given

SMILES: CCc1c2c(nc3ccc(O)cc13)-c1cc3c(c(=O)n1C2)COC(=O)[C@]3(O)CC [HECPT, 10-hydroxy 7-ethyl camptothecin]
- reversibility of cleavable complex stabilization (topoisomerase I [1]): readily reversible
- AUC ([2]; CPT-11 25 mg/m^2/dx5): 1.08 µg·h/mL
- CpMax ([2]; CPT-11 25 mg/m^2/dx5): 0.0104 µg/mL
- AUC ([2]; CPT-11 30 mg/m^2/dx5): 0.96 µg·h/mL
- AUC ([2]; CPT-11 35 mg/m^2/dx5): 0.91 µg·h/mL
- CpMax ([2]; CPT-11 35 mg/m^2/dx5): 0.0068 µg/mL
- AUC ([2]; CPT-11 40 mg/m^2/dx5): 0.86 µg·h/mL
- CpMax ([2]; CPT-11 40 mg/m^2/dx5): 0.0080 µg/mL
- toxicity of HECPT relative to CPT-11 (suggested) ([2]; Ohe et al.): more toxic moiety
- correlation between HECPT pharmacokinetics and dose or CPT-11 pharmacokinetics and toxicity ([2]; human subjects): lack of correlation
- results relative to CPT-11 under the same conditions (L1210 leukemia): inferior
- anti-tumor activity compared to CPT-11 in vivo (P388 tumor): little anti-tumor activity
- inhibition of purified topoisomerase I [3]: inhibited
- overall fractional concentration of the lactone species through a range of doses [4]: fairly constant
- greatest quantitative biochemical effect (DNA single-strand breaks): DNA single-strand breaks that occur during the S-phase
- CpMax of HECPT with increases in dose of CPT-11 [5]: decrease
- potency in generating single-strand DNA breaks relative to CPT-11 (MOLT3 cells): approximately 1000 fold
- inhibitory activity against topoisomerase I relative to CPT-11 (topoisomerase I [6]): 3600 fold
- plasma concentration of HECPT in mice [7]: maintained longer after CPT-11 administration than after treatment with HECPT
- AUC ([8]; CPT-11 50 mg/m^2/wkx4): 0.1955 µg·h/mL
- CpMax ([8]; CPT-11 50 mg/m^2/wkx4): 0.0393 µg/mL
- AUC ([8]; CPT-11 100 mg/m^2/wkx4): 0.2148 µg·h/mL
- CpMax ([8]; CPT-11 100 mg/m^2/wkx4): 0.0316 µg/mL
- AUC ([8]; CPT-11 150 mg/m^2/wk X4): 0.1232 µg·h/mL
- CpMax ([8]; CPT-11 150 mg/m^2/wk X4): 0.0367 µg/mL
- AUC ([8]; CPT-11 180 mg/m^2/wk X4): 0.2328 µg·h/mL
- CpMax ([8]; CPT-11 180 mg/m^2/wk X4): 0.0262 µg/mL
- AUC [8, 17]: 0.0622 µg·h/mL

SMILES: CCc1c2c(nc3ccccc13)-c1cc3c(c(=O)n1C2)COC(=O)C3(O)CC (stereo not drawn) [ECPT, 7-ethyl camptothecin]
- antitumor activity in preclinical studies (preclinical tumor models): broad anticancer activity
- inhibition of Topoisomerase I (topoisomerase I [1]): potent inhibitor
- solubility in water [9]: insufficiently water soluble for clinical use
- results relative to CPT-11 under the same conditions (L1210 leukemia): inferior

SMILES: CC[C@@]1(O)C(=O)OCc2c1cc1n(c2=O)Cc2cc3ccccc3nc2-1 [lactone form of camptothecin]
- antitumor activity in preclinical studies (preclinical tumor models): significant antitumor activity
- toxicity relative to sodium camptothecin [10]: 10 fold

SMILES: COc1cc([C@@H]2c3cc4c(cc3[C@@H](O[C@@H]3O[C@@H]5CO[C@@H](C)O[C@H]5[C@H](O)[C@H]3O)[C@H]3COC(=O)[C@H]23)OCO4)cc(OC)c1O [etoposide]
- bioavailability following oral administration versus intravenous [11]: substantially equivalent

SMILES: CCC(O)(C(=O)O)c1cc2n(c(=O)c1CO)Cc1cc3ccccc3nc1-2 (stereo not drawn) [sodium camptothecin]
- toxicity in Phase II studies [12]: unpredictable and severe myelosuppression, gastrointestinal toxicity, hemorrhagic cystitis, and alopecia

SMILES: CC[C@@]1(O)C(=O)OCc2c1cc1n(c2=O)Cc2cc3c(CN(C)C)c(O)ccc3nc2-1 [topotecan]
- activity relative to parent compound ([13]; human, in vivo): retain significant activity of the parent compound
- sporadic toxicities [13]: less sporadic toxicities

SMILES: CCc1c2c(nc3ccc(OC(=O)N4CCC(N5CCCCC5)CC4)cc13)-c1cc3c(c(=O)n1C2)COC(=O)[C@]3(O)CC [CPT-11, 7-Ethyl-10-[4-(1-piperidino)-1-piperidino]Carbonyloxy-Camptothecin]
- Fractional amount of lactone species, CpMax Based ([14]; single dose I.V. CPT-11 50 mg/m^2): 0.51
- Fractional amount of lactone species, CpMax Based ([14]; single dose I.V. CPT-11 80 mg/m^2): 0.44
- Fractional amount of lactone species, CpMax Based ([14]; single dose I.V. CPT-11 100 mg/m^2): 0.53
- Fractional amount of lactone species, CpMax Based ([14]; single dose I.V. CPT-11 125 mg/m^2): 0.55
- Fractional amount of lactone species, CpMax Based ([14]; single dose I.V. CPT-11 150 mg/m^2): 0.42
- Fractional amount of lactone species, CpMax Based ([14]; single dose I.V. CPT-11 180 mg/m^2): 0.42
- Toxicity (Tumor; Clavel et al, 90 min. QDx3 Q21 days, 115 mg/m^2/d (33-115)): Neutropenia* diarrhea; also recorded: nausea and vomiting; also recorded: alopecia
- Tumor Type (responses) (Tumor; Clavel et al, Breast): 1 PR
- Tumor Type (responses) (Tumor; Clavel et al, Mesothelioma): 1 PR
- Toxicity (Tumor; Culine et al, 90 min. Q21 days, 150 mg/m^2/wk (50-150)): Neutropenia* diarrhea*; also recorded: vomiting, alopecia; also recorded: fatigue stomatitis
- Tumor Type (responses) (Tumor; Culine et al, cervix): 1 PR
- Tumor Type (responses) (Tumor; Culine et al, esophagus): 1 PR
- Tumor Type (responses) (Tumor; Culine et al, ovarian): 1 PR
- Tumor Type (responses) (Tumor; Culine et al, renal): 1 PR
- Toxicity (Tumor; Negoro et al, 30 min infusion, 100 mg/m^2 (50-150)): Diarrhea*, N/V
- Tumor Type (responses) (Tumor; Negoro et al, NS CLC): 2 PRs
- Tumor Type (responses) (Tumor; Ohe et al, 120 hr CI): None
- Toxicity (Tumor; Rothenberg et al, 90 mg QWx4 Q42 days, 180 mg/m^2/wk (50-180)): Neutropenia, nausea; also recorded: vomiting, alopecia
- Tumor Type (responses) (Tumor; Rothenberg et al, Colon Ca): 2 PRs
- Toxicity (Tumor; Rowinsky et al, 90 min infusion Q21 day, 240 mg/m^2 (100-345)): Neutropenia* vomiting; also recorded: diarrhea abd. pain; also recorded: flushing
- Tumor Type (responses) (Tumor; Rowinsky et al, Cervix Ca): 1 PR
- Tumor Type (responses) (Tumor; Rowinsky et al, Colon Ca): 1 PR
- interpatient variability in AUC and metabolism to HECPT ([2]; 5-day continuous intravenous infusion): large range of interpatient variability
- inhibition of purified topoisomerase I [3]: inhibited
- sporadic toxicities [13]: less sporadic toxicities
- Reported Toxicities: N/V (Cervical cancer): 51%
- Reported Toxicities: Neutropenia (Cervical cancer): 89%
- Reported Toxicities: alopecia (Cervical cancer): 38.1%
- Reported Toxicities: diarrhea (Cervical cancer): 39.1%
- Response (complete responses) (Cervical cancer): SCR
- Response: PR (Cervical cancer): 8 PR
- Reported Toxicities [15]: Neutropenia, diarrhea
- Reported Toxicities: pneumonitis [15]: 12.5%
- Response (PRs) [15]: 7/15
- Response Rate [15]: 47%
- overall fractional concentration of the lactone species through a range of doses [4]: fairly constant
- Reported Toxicities: NN (Colon cancer): 35%
- Reported Toxicities: Neutropenia (Colon cancer): 53%
- Reported Toxicities: diarrhea (Colon cancer): 24%
- Response (PR) (Colon cancer): 6/17
- Response Rate (Colon cancer): 46%
- Reported Toxicities: N/V (Small Cell Lung Cancer): 61.5%
- Reported Toxicities: alopecia (Small Cell Lung Cancer): 40.0%
- Reported Toxicities: diarrhea (Small Cell Lung Cancer): 53.8%
- Response: CRs (Small Cell Lung Cancer): 2 CRs
- Response: PRs (Small Cell Lung Cancer): 7 PRs
- Reported Toxicities [16]: anorexia, alopecia; also recorded: Neutropenia diarrhea; also recorded: nausea, vomiting
- Response (PRs) [16]: 23/72
- Response Rate [16]: 31.9%
- Response Rate (RR) (Leukemia/Lymphoma; 20 mg/m^2 bid x7): 25%
- Response Rate (PR) (Leukemia/Lymphoma; 40 mg/m^2 Q0x5): 34%
- Response Rate (Leukemia/Lymphoma; 200 mg Q3): No resp.
- Reported Toxicities: Gastrointestinal (Leukemia/Lymphoma; in vivo): 76%
- Reported Toxicities: Neutropenia (Leukemia/Lymphoma; in vivo): 91%
- Reported Toxicities (Leukemia/Lymphoma; incidence not given): Thrombocytopenia
- AUC ([8]; CPT-11 50 mg/m^2/wkx4): 2.97 µg·h/mL
- CpMax ([8]; CPT-11 50 mg/m^2/wkx4): 1.70 µg/mL
- AUC ([8]; CPT-11 100 mg/m^2/wkx4): 2.23 µg·h/mL
- CpMax ([8]; CPT-11 100 mg/m^2/wkx4): 1.29 µg/mL
- AUC ([8]; CPT-11 150 mg/m^2/wk X4): 2.81 µg·h/mL
- CpMax ([8]; CPT-11 150 mg/m^2/wk X4): 1.56 µg/mL
- AUC ([8]; CPT-11 180 mg/m^2/wk X4): 3.83 µg·h/mL
- CpMax ([8]; CPT-11 180 mg/m^2/wk X4): 1.97 µg/mL
- AUC [8, 17]: 1.13 µg·h/mL
- CpMax [8, 17]: 0.89 µg/mL
- sensitivity of human tumors in relation to ability to produce HECPT (human tumors): independent of their ability to produce HECPT

SMILES: CC[C@@]1(O)C(=O)OCc2c1cc1n(c2=O)Cc2cc3cc4c(cc3nc2-1)OCO4 [10,11 methylene dioxycamptothecin, 10,11 methylenedioxy camptothecin]
- antitumor activity in preclinical studies (preclinical tumor models): very active
